The results in this text go back to US9000022B2 (Exelixis Patent Company LLC, priority 2005, dated 2015).

Where only a bound is given, the exact number is not on record here.

In this test the test system is LXRα and/or LXRβ. Kind of test: Co-transfection assay (LXRE luciferase reporter, CV-1 cells). Format: cell-based, human. As to conditions: tested as described in Example 33; IC50 or EC50 for LXRα and/or LXRβ, isoform not specified; read-out: activity (IC50 or EC50 for LXR). In outline: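 CV-1 cells transiently co-transfected with full-length human LXRα or LXRβ plus RXRα, an LXRE×1-Tk-luciferase reporter and a β-galactosidase control. Compounds incubated 20 h at 37 °C (≤1% DMSO; screen at 10 μM final); luciferase read after lysis. EC50/IC50 from 8-point half-log curves (4 wells per point, ≥3 experiments); efficacy relative to a reference agonist high control and DMSO.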
Regarding `CS(=O)(=O)c1cccc(-c2ccc(-c3[nH]c(C(F)(F)F)nc3-c3ccccc3Cl)cc2)c1` [Example 359, 4-(2-chlorophenyl)-5-[3′-(methyl-sulfonyl)biphenyl-4-yl]-2-(trifluoro-methyl)-1H-imidazole], the IC50 or EC50 (potency, activation or inhibition) is below 1000 nM. Then `Cc1cc(-c2cccc(S(C)(=O)=O)c2)ccc1-n1cc(C(C)(C)O)nc1-c1ccccc1C(C)C` [Example 195, 2-(2-(2-isopropylphenyl)-1-(3-methyl-3′-(methylsulfonyl)biphenyl-4-yl)-1H-imidazol-4-yl)propan-2-ol], with below 1000 nM; and `CC(C)(O)c1cccc(-c2ccc(-n3cc(C(C)(C)O)nc3-c3ccccc3Cl)cc2)c1` [Example 409, 2-{2-(2-chlorophenyl)-1-[3′-(1-hydroxy-1-methylethyl)biphenyl-4-yl]-1H-imidazol-4-yl}propan-2-ol], with 1000 to 10000 nM; and `Cc1cc(-c2ccc(CO)c(S(C)(=O)=O)c2)ccc1-n1cc(C(C)(C)O)nc1-c1ccccc1C(F)(F)F` [Example 171], with below 1000 nM. On to `NS(=O)(=O)c1cccc(-c2ccc(-n3cc(C(F)(F)F)nc3-c3ccccc3C(F)(F)F)cc2)c1` [Example 365, 4′-{4-(trifluoromethyl)-2-[2-(trifluoromethyl)phenyl]-1H-imidazol-1-yl}biphenyl-3-sulfonamide], for which the IC50 or EC50 (potency, activation or inhibition) was below 1000 nM.

Turning to `Cc1cc(-c2cccc(S(C)(=O)=O)c2)ccc1-n1cc(C(C)(C)O)nc1-c1cccc2cnccc12` [Example 35, 2-(2-(isoquinolin-5-yl)-1-(3-methyl-3′-(methylsulfonyl)biphenyl-4-yl)-1H-imidazol-4-yl)propan-2-ol], the IC50 or EC50 (potency, activation or inhibition) lay in the range of 1000 to 10000 nM. As for `CC(C)S(=O)(=O)c1cccc(-c2ccc(-n3cc(C(F)(F)F)nc3-c3ccccc3C(F)(F)F)nc2)c1` [Example 372, 5-{3-[(1-methylethyl)sulfonyl]phenyl}-2-{4-(trifluoromethyl)-2-[2-(trifluoro-methyl)phenyl]-1H-imidazol-1-yl}pyridine], the figure is below 1000 nM. Then `CCS(=O)(=O)c1cccc(-c2ccc(-n3cc(C(C)(C)O)nc3-c3c(C)cccc3Cl)c(F)c2)c1` [Example 129], with below 1000 nM; and `CC(C)(O)c1cn(-c2cccc(-c3ccc(S(C)(=O)=O)cc3)c2)c(-c2ccccc2C(F)(F)F)n1` [Example 407, 2-{1-[4′-(methylsulfonyl)biphenyl-3-yl]-2-[2-(trifluoromethyl)phenyl]-1H-imidazol-4-yl}propan-2-ol], with below 1000 nM. Then `Cc1cccc(Cl)c1-c1nc(C(C)(C)O)cn1-c1ccc(-c2cccc(S(C)(=O)=O)c2)cc1Cl` [Example 156, 2-(1-(3-chloro-3′-(methyl-sulfonyl)biphenyl-4-yl)-2-(2-chloro-6-methylphenyl)-1H-imidazol-4-yl)propan-2-ol], with below 1000 nM; and `CCS(=O)(=O)c1cccc(-c2ccc(-n3cc(C(C)(C)O)nc3-c3c(F)cccc3Cl)cc2)c1` [Example 92, 2-(2-(2-chloro-6-fluorophenyl)-1-(3′-(ethylsulfonyl)biphenyl-4-yl)-1H-imidazol-4-yl)propan-2-ol], with 1000 to 10000 nM. For the compound `CCS(=O)(=O)c1cccc(-c2ccc(-n3cc(C(C)(C)O)nc3-c3cnccc3C(F)(F)F)cc2)c1` [Example 38, 2-(1-(3′-(ethylsulfonyl)biphenyl-4-yl)-2-(4-(trifluoromethyl)pyridin-3-yl)-1H-imidazol-4-yl)propan-2-ol], the IC50 or EC50 (potency, activation or inhibition) is above 10000 nM. As for `CC(C)(O)c1cn(-c2ccc(-c3ccc(C(C)(C)O)c(S(C)(=O)=O)c3)cc2Cl)c(-c2c(F)cccc2Cl)n1` [Example 164, 2-(3′-chloro-4′-(2-(2-chloro-6-fluorophenyl)-4-(2-hydroxypropan-2-yl)-1H-imidazol-1-yl)-3-(methyl-sulfonyl)biphenyl-4-yl)propan-2-ol], the figure is 1000 to 10000 nM; as for `CC(C)(O)c1cn(-c2ccc(-c3cccc(S(C)(=O)=O)c3)cc2)c(-c2ccccc2)n1` [Example 378, 2-{1-[3′-(methylsulfonyl)biphenyl-4-yl]-2-phenyl-1H-imidazole-4-yl}propan-2-ol], 1000 to 10000 nM. `CCS(=O)(=O)c1cccc(-c2ccc(-n3cc(C(C)(C)O)nc3-c3c(F)cccc3Cl)c(F)c2)c1` [Example 126, 2-(2-(2-chloro-6-fluorophenyl)-1-(3′-(ethylsulfonyl)-3-fluorobiphenyl-4-yl)-1H-imidazol-4-yl)propan-2-ol]: the IC50 or EC50 (potency, activation or inhibition) is below 1000 nM. As for `CC(C)(O)c1cn(-c2ccc(-c3cccc(S(C)(=O)=O)c3)cc2Cl)c(-c2cccc(Cl)c2Cl)n1` [Example 140, 2-(1-(3-chloro-3′-(methyl-sulfonyl)biphenyl-4-yl)-2-(2,3-dichlorophenyl)-1H-imidazol-4-yl)propan-2-ol], the figure is below 1000 nM; as for `CS(=O)(=O)Nc1cccc(-c2ccc(-n3cc(C(F)(F)F)nc3-c3ccccc3C(F)(F)F)cc2)c1` [Example 375, N-(4′-{4-(trifluoromethyl)-2-[2-(trifluoromethyl)phenyl]-1H-imidazol-1-yl}biphenyl-3-yl)methane-sulfonamide], below 1000 nM; as for `CC(C)(O)c1cn(-c2ccc(-c3cccc(S(C)(=O)=O)c3)cc2F)c(-c2cccc(Cl)c2Cl)n1` [Example 113, 2-(2-(2,3-dichlorophenyl)-1-(3-fluoro-3′-(methylsulfonyl)biphenyl-4-yl)-1H-imidazol-4-yl)propan-2-ol], below 1000 nM. With `CCS(=O)(=O)c1cccc(-c2ccc(-c3nc(C(C)(C)O)cn3-c3c(Cl)cccc3Cl)s2)c1` [Example 45, 2-(1-(2,6-dichlorophenyl)-2-(5-(3-(ethylsulfonyl)phenyl)thiophen-2-yl)-1H-imidazol-4-yl)propan-2-ol], the IC50 or EC50 (potency, activation or inhibition) was in the range of 1000 to 10000 nM.

As for `CCS(=O)(=O)c1cccc(-c2ccc(-n3cc(C(C)(C)O)nc3-c3cccc(F)c3Cl)c(C)c2)c1` [Example 186, 2-(2-(2-chloro-3-fluorophenyl)-1-(3′-(ethylsulfonyl)-3-methylbiphenyl-4-yl)-1H-imidazol-4-yl)propan-2-ol], the IC50 or EC50 (potency, activation or inhibition) is below 1000 nM. For `CC(C)(O)c1cn(-c2ccc(-c3cccc(S(C)(=O)=O)c3)c(F)c2)c(-c2ccccc2C(F)(F)F)n1` [Example 111, 2-(1-(2-fluoro-3′-(methyl-sulfonyl)biphenyl-4-yl)-2-(2-(trifluoromethyl)phenyl)-1H-imidazol-4-yl)propan-2-ol], the IC50 or EC50 (potency, activation or inhibition) was below 1000 nM. Then `CC(C)(O)c1cn(-c2ccc(-c3cccc(S(C)(=O)=O)c3)cc2F)c(Cc2cccc(Cl)c2Cl)n1` [Example 449, 2-(2-(2,3-dichlorobenzyl)-1-(3-fluoro-3′-(methylsulfonyl)biphenyl-4-yl)-1H-imidazol-4-yl)propan-2-ol], with below 1000 nM.
